The source of these data is the METLIN SMRT retention time set (Domingo-Almenara et al. 2019).

Each structure is given as a SMILES string.

The nature of the series: gradient 5% acetonitrile 3 min, to 50% in 2 min, to 85% in 15 min, held 3 min, 100 µL/min. The note with it: column: Zorbax Extend-C18 2.1 x 50 mm; eluents: water / acetonitrile, 0.1% formic acid. In outline: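 Pure standards were run in mixtures of ~100 molecules by HPLC coupled to a quadrupole time-of-flight mass spectrometer. The column was a Zorbax Extend-C18 (2.1 × 50 mm, 1.8 μm) at 100 μL/min, with water and acetonitrile each containing 0.1% formic acid, in positive and negative ionization mode. Dead and dwell volumes were 40 μL and 900 μL. Retention time was taken from computationally picked adduct peaks, each manually inspected, with data collected over 3 months.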
With `COC(=O)CN1N=C(C(=O)N2CCC(C)CC2)S(=O)(=O)c2ccccc21`, the RP-LC retention time was found to be 825 s.

`CC(C)NC(=O)N1CCC2(CC1)C(=O)N(C)c1ccccc12`: the RP-LC retention time came out at 697 s.

Regarding `CCOC(=O)c1c(C)[nH]c(C(=O)N2CCC(CC(=O)N3CCN(c4ccccc4)CC3)CC2)c1C`, the RP-LC retention time came to 836 s.

In the case of `CCc1ccc(-c2ccc(=O)n(Cc3nc(-c4cccs4)no3)n2)cc1`, the RP-LC retention time is 1060 s.

On to `O=C(NC1CCCCC1)N1CCC2(CC1)NCc1ccccc1-n1ccnc12`, for which the RP-LC retention time came to 608 s.

Turning to `O=C(c1ccsc1)N1CCCn2cc(-c3ccccc3F)nc21`, the RP-LC retention time was found to be 673 s.

Consider `c1ccc2c(c1)CCN(c1nccnc1OC1CCNC1)C2` (stereo unspecified), for which the RP-LC retention time is 649 s.

Molecule `COc1ccccc1/C=C/c1nc(-c2cccc(-c3ccn[nH]3)c2)no1` showed an RP-LC retention time of 976 s.

In the case of `Cc1ccc2c(c1)C(=O)NC1(CCN(C(=O)c3cc(F)cc(F)c3)CC1)N2C`, the RP-LC retention time came to 752 s.

`CC(C)n1nccc1-c1csc(S(=O)(=O)N2CCC3(CC2)OCCO3)c1`: the RP-LC retention time is 922 s.

Regarding `COCCn1cc(CCNC(=O)Nc2ccc(C)c(Cl)c2)c2cccnc21`, the RP-LC retention time was determined as 812 s.

On to `CN(C)C(=O)c1ccc2c(c1)N(CC(=O)NCc1ccc(Cl)cc1)C(=O)C1CCCCN21` (stereo unspecified), for which the RP-LC retention time is 792 s.

As for `CCCCNc1onc(-c2ccc(F)cc2)c1C(=O)OC`, the RP-LC retention time is 1130 s.

In turn, `O=C(CN1C(=O)CCCc2cc(S(=O)(=O)N3CCCCC3)ccc21)NCc1ccc(F)cc1` displayed an RP-LC retention time of 862 s.

Molecule `CCC(C)C(NC(=O)c1ccc(C(C)C)cc1)C(=O)Nc1nc2ccccc2[nH]1` (stereo unspecified) had an RP-LC retention time of 856 s.

In turn, `O=C(NC1CN2CCC1CC2)c1cc2ccoc2cn1` (stereo unspecified) showed an RP-LC retention time of 620 s.

Molecule `O=C(Cn1c(=O)n(-c2ccccc2)c2ncccc21)NC1CCN(Cc2ccccc2)CC1` had an RP-LC retention time of 630 s.

For `Cc1ccc(-c2noc(CN3N=NC4C(=O)N(c5ccc(F)c(Cl)c5)C(=O)C43)n2)cc1` (stereo unspecified), the RP-LC retention time is 1090 s.

`CCOC(=O)COc1cc(-c2ccccc2)nc2ccc(NC(=O)Cc3cccs3)cc12` came in with an RP-LC retention time of 797 s.

In the case of `CCc1ccc(NC(=O)Cc2nc(C)c(C(=O)NCC(C)C)s2)cc1`, the RP-LC retention time was 868 s.

For the molecule `Cc1ncc2c(n1)C[C@@H]1CC[C@H]2N1S(=O)(=O)c1ccc2c(c1)C(C)(C)C(=O)N2`, the RP-LC retention time was found to be 636 s.

In turn, `CCc1nc2cc(-c3noc(C4(c5ccc(OC)cc5)CC4)n3)ccc2o1` gave an RP-LC retention time of 690 s.

`CN1CCn2ccnc2C12CCN(C(=O)Nc1ccccc1Cl)CC2` showed an RP-LC retention time of 576 s.

The molecule `COc1cccc(S(=O)(=O)NCc2cccnc2-c2ccc(C)cc2)c1` returned an RP-LC retention time of 695 s.

Molecule `CCn1cc(-c2nc(C)c(C(=O)Nc3cc(F)cc(F)c3)s2)c2cccnc21` returned an RP-LC retention time of 1120 s.

For the molecule `O=C(COc1ccc(F)cc1)N1CC(n2cc(COCC3CC3)nn2)C1`, the RP-LC retention time is 736 s.

The molecule `CN(Cc1cccn1C)C(=O)NC(C)(C)C` returned an RP-LC retention time of 805 s.

In turn, `COCCNC(=O)Nc1nc(-c2ccccc2)c(C(C)=O)s1` gave an RP-LC retention time of 685 s.

Molecule `Cc1cc(C(=O)NCCN2CCCCC2)c2cc(Br)ccc2n1` showed an RP-LC retention time of 567 s.

In the case of `Cc1[nH]c(C(=O)N2CCCC(C(=O)NCC3CCCO3)C2)c(C)c1C(=O)OC(C)C` (stereo unspecified), the RP-LC retention time amounted to 701 s.

`Cc1oc(-c2[nH]ncc2C(=O)N(C)C)cc1S(=O)(=O)NCc1ccco1` showed an RP-LC retention time of 622 s.

`CCOCC(=O)N1C[C@H]2C[C@H](C1)[C@H]1CCCC(=O)N1C2`: the RP-LC retention time was 582 s.

Consider `O=C(NCC1CCOCC1)c1cnc(Nc2ccc(Cl)cc2Cl)nc1C(F)(F)F`, for which the RP-LC retention time stood at 997 s.

On to `CCn1cc(C(=O)Nc2cc(C)cc(C)c2)c(S(=O)(=O)N2CCSCC2)n1`, for which the RP-LC retention time is 944 s.

In the case of `CC1=C(c2ccc(C)cc2)S(=O)(=O)N=C1N1CCCN(C(=O)C2CCOC2)CC1` (stereo unspecified), the RP-LC retention time turned out to be 732 s.

Molecule `CCn1c(=O)n(CC)c2cc(S(=O)(=O)c3ccc(C)cc3)c(NC(=O)C3CC3)cc21` yielded an RP-LC retention time of 873 s.

As for `O=C(Cn1nc(C2CC2)cc1C(=O)N1CCCC1)Nc1ccc(F)c(F)c1`, the RP-LC retention time came out at 789 s.

The molecule `O=C(CCc1c(-c2ccc(Br)cc2)nc2ccccn12)NCCN1CCCC1` came in with an RP-LC retention time of 567 s.

Molecule `COc1ccc(-c2cc(-c3nc4c5sc6nc(C)cc(C)c6c5ncn4n3)[nH]n2)cc1` gave an RP-LC retention time of 1010 s.

On to `COc1ccc(CN2C=C(C(=O)OCc3ccccc3C)C(C)=NS2(=O)=O)cc1`, for which the RP-LC retention time came out at 1140 s.

In turn, `COc1cc(NS(=O)(=O)c2cc3n(c2)CCCNC3=O)cc(OC)c1` showed an RP-LC retention time of 639 s.

`COc1ccc2c(c1)C=C(C(=O)Nc1cc(OC)c(OC)c(OC)c1)CO2` showed an RP-LC retention time of 909 s.

The molecule `O=S(=O)(CCOc1ccc(F)cc1)Nc1ncccn1` showed an RP-LC retention time of 670 s.

`Cc1c(C(=O)NC2CC2)cc(-c2ccc(F)cc2)n1C`: the RP-LC retention time came out at 830 s.

Molecule `Cc1nn(C)cc1S(=O)(=O)Nc1c(C)n(C)n(-c2ccccc2)c1=O` gave an RP-LC retention time of 722 s.

On to `Cc1cccc(S(=O)(=O)Nc2ccc3c(c2)CCC(=O)N3CC(C)C)c1`, for which the RP-LC retention time is 896 s.

`O=C(c1cnc2sc3c(n2c1=O)CCC3)N1CCN(c2ncccn2)CC1` gave an RP-LC retention time of 658 s.

In the case of `COc1ccc(Cc2nc(-c3ccc4c(c3)nc(C)c(=O)n4C)no2)cc1OC`, the RP-LC retention time stood at 894 s.

On to `CC(C)c1cc(C(=O)Nc2ccc(F)cc2)nn1C1CCS(=O)(=O)C1` (stereo unspecified), for which the RP-LC retention time is 860 s.

On to `CCCN(CC1CCOC1)C(=O)Nc1cccc(Cl)c1F` (stereo unspecified), for which the RP-LC retention time amounted to 853 s.

The molecule `CN1C(=O)CCC2(CNC(=O)c3n[nH]c(=O)c4ccccc34)CCC=C12` (stereo unspecified) showed an RP-LC retention time of 669 s.

Turning to `COc1ccc(C(=O)N2CCC3(CC2)NC(=O)c2cc(F)ccc2N3C)cc1OC`, the RP-LC retention time came to 715 s.

`COCCN1CCC2(CC1)CN(Cc1cccc(F)c1)Cc1ccccc1O2` gave an RP-LC retention time of 629 s.

Take `CCc1ccc(C(=O)N2CCC3(C2)C(=O)N(C)c2ccc(OC)cc23)cc1` (stereo unspecified): the RP-LC retention time came to 840 s.

`Cc1cccc(N2C(=O)CN(CCc3cccs3)[C@H]3CS(=O)(=O)C[C@H]32)c1` returned an RP-LC retention time of 814 s.

As for `CCOC(=O)c1nc(NCCCN2CCN(Cc3ccccc3)CC2)c2ccccc2n1`, the RP-LC retention time was 588 s.

For `CC(C)n1cnc2cc(CNC(=O)c3cccc(C#N)c3)ccc21`, the RP-LC retention time worked out at 596 s.

Molecule `CC(=O)N1CCc2cc(C)c(S(=O)(=O)N3CCN(C)CC3)cc21` gave an RP-LC retention time of 585 s.

Turning to `CCC(C)NC(=O)CSc1cc(N2CCN(c3ccc(OC)cc3)CC2)ncn1` (stereo unspecified), the RP-LC retention time is 775 s.

The molecule `Cc1oc(-c2ccccc2)nc1Cn1ccn2nc(-c3cccs3)cc2c1=O` displayed an RP-LC retention time of 1060 s.

As to `O=C(Nc1ccccc1Cl)Nc1c(-c2ccc(F)cc2)nc2ccccn12`, the RP-LC retention time was determined as 695 s.

For `COc1ccc(-c2nc3ncccn3c2NCc2ccc(Cl)cc2)cc1OC`, the RP-LC retention time is 717 s.

The molecule `COC1CCC12CCN(C(=O)c1c(C)noc1C)CC2` (stereo unspecified) came in with an RP-LC retention time of 716 s.

The molecule `C=CCc1ccccc1OCCn1c(CN(C)C(=O)c2ccco2)nc2ccccc21` displayed an RP-LC retention time of 702 s.

Molecule `CC(C)c1c(C(=O)O)nnn1-c1ccc(F)c(F)c1` returned an RP-LC retention time of 762 s.

As to `Cc1cc(-c2nnc(-c3ccc(F)cc3)o2)c(C)n1CC(=O)NCc1ccccc1F`, the RP-LC retention time was 950 s.

As to `CCc1nc2c(NC(=O)c3ccc(C(F)(F)F)cc3)cccn2n1`, the RP-LC retention time is 957 s.

In turn, `Cc1ccc(C(=O)N2CCN(c3nnc4cccc(C)n34)CC2)cc1C` displayed an RP-LC retention time of 705 s.

Molecule `CCOC(=O)c1noc2nc(C)nc(NCC3CCN(Cc4ccc(F)cc4)CC3)c12` came in with an RP-LC retention time of 666 s.

In the case of `CCOC(=O)c1nc(Nc2cccc(C)c2C)c2ccccc2n1`, the RP-LC retention time came to 826 s.

On to `CC(C)NC(=O)c1nc2ccccn2c1-c1ccc(Cl)cc1`, for which the RP-LC retention time was determined as 846 s.

As for `COC(=O)C(C)n1cccc1-c1nc(-c2ccncc2)no1` (stereo unspecified), the RP-LC retention time turned out to be 840 s.

`COc1ccc(C2(C(=O)N3C[C@@H](CO)[C@H](c4ccccn4)C3)CC2)cc1` had an RP-LC retention time of 605 s.

In the case of `O=C(NCc1ccc2c(c1)OCO2)C(=O)NCC1CCN(S(=O)(=O)C2CC2)CC1`, the RP-LC retention time stood at 711 s.

As for `Cn1c(=O)c2nc(SCCC(=O)Nc3ccc(Br)cc3F)n(C)c2n(C)c1=O`, the RP-LC retention time was determined as 806 s.

As to `COc1ccc(N2CCN(CC(O)c3ccc(C)cc3)CC2)cc1` (stereo unspecified), the RP-LC retention time is 677 s.

Molecule `CCC(=O)N1CCc2c(C(=O)N3CCN(c4ccccn4)CC3)cccc21` registered an RP-LC retention time of 589 s.

In the case of `Nc1cc(C2CCN(C(=O)c3ccccc3F)CC2)no1`, the RP-LC retention time amounted to 648 s.

With `CCOCCOC(=O)C1=C(C)NC2=C(C(=O)C(C(=O)OC)C(C)C2)C1c1cccc(F)c1` (stereo unspecified), the RP-LC retention time turned out to be 894 s.

In turn, `CCCC(=O)Nc1ccc2c(c1)CC(C(=O)NCC(=O)OC)CO2` (stereo unspecified) registered an RP-LC retention time of 650 s.

Regarding `Cc1ccc(C(O)Cn2ccn3nc(-c4ccc(F)cc4)cc3c2=O)cc1C` (stereo unspecified), the RP-LC retention time is 1020 s.
